IC50 data for 1 compound are collected here from ChEMBL document CHEMBL1152742, “Morpholine-based RGD-cyclopentapeptides as alphavbeta3/alphavbeta5 integrin ligands: role of configuration towards receptor binding affinity” (Bioorg Med Chem, 2009).

In one assay the target is Integrin alpha-V/beta-3 (Homo sapiens, UniProt P05106+P06756).
The target in assay [1] is Integrin alpha-V/beta-5 (Homo sapiens). Put plainly: Displacement of [125I]echistatin from integrin alphaVbeta5 receptor in human placenta by microplate scintillation counter. (In general: Loss of bound radioactivity is the signal in a displacement assay; it reports binding, not function.)

Integrin alpha-V/beta-3, sequence (P05106 27-788 limits assumed): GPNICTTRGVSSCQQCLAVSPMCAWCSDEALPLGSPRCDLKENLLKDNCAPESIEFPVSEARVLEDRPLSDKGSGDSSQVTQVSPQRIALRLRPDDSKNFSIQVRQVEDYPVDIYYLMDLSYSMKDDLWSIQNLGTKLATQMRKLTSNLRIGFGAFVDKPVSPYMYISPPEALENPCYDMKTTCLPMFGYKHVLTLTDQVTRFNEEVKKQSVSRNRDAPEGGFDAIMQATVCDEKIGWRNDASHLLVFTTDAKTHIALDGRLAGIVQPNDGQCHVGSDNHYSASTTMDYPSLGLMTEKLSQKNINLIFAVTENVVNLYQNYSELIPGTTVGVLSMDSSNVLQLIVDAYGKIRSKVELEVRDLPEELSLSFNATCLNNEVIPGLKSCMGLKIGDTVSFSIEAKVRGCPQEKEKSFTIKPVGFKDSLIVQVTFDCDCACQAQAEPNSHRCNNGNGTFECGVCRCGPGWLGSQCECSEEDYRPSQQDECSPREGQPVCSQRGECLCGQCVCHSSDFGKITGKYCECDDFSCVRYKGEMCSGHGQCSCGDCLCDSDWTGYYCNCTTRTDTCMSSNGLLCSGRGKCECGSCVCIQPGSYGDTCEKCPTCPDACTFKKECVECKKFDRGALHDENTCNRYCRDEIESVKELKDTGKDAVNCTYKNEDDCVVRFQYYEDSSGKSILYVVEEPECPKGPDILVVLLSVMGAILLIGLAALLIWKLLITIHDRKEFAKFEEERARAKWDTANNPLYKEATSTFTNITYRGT
Integrin alpha-V/beta-3, sequence (P06756 31-889 partner limits assumed): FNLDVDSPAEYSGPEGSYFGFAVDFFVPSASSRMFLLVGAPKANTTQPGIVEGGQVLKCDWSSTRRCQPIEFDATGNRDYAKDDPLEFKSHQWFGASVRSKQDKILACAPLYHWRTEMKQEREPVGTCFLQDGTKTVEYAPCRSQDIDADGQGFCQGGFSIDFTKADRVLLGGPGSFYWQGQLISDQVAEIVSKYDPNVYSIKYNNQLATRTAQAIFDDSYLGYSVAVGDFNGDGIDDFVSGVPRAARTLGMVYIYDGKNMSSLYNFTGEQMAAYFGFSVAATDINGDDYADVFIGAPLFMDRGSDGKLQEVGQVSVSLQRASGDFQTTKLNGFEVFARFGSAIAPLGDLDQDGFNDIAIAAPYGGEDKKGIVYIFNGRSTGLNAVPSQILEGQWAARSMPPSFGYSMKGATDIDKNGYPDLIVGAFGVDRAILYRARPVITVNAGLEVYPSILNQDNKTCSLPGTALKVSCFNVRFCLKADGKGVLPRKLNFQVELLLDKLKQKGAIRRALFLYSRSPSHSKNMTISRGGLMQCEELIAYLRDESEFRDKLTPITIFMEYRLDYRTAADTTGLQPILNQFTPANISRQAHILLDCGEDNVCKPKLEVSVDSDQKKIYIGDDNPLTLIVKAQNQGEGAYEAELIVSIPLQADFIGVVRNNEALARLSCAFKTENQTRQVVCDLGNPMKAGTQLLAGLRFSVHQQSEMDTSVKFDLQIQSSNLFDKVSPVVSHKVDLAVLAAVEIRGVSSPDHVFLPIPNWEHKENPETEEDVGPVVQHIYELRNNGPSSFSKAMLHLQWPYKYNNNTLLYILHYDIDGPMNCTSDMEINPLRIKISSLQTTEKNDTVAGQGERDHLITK
Integrin alpha-V/beta-3, sequence (P06756 891-1048 partner limits assumed): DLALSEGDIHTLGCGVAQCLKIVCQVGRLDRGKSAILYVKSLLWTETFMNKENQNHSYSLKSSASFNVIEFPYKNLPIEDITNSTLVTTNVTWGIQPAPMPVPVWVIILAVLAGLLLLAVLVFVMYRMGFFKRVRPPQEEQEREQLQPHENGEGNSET
Description for Integrin alpha-V/beta-3: Displacement of [125I]echistatin from integrin alphaVbeta3 receptor in human placenta by microplate scintillation counter

As a reminder, the IC50 is the point on the concentration scale where inhibition reaches its midpoint. Consider `NC(N)=NCCC[C@@H]1NC(=O)CNC(=O)[C@H](CC(=O)O)N[C@@H]2CCC[C@@H]3CC[C@@H](C1=O)N3C2=O`, for which the IC50 against Integrin alpha-V/beta-3 was 5.64 nM; in assay [1], 0.9 nM.
